Experimental findings from ChEMBL document CHEMBL6096692, “Discovery of 2(1H)-Quinoxalinone Derivatives as Potent and Selective MAT2A Inhibitors for the Treatment of MTAP-Deficient Cancers” (J Med Chem, 2025) are described below.

pIC50: −log10 of the molar value. The source made the active and inactive calls. The rule behind the calls is not given here.

The term half-life denotes how long it takes for the measured level to halve. High values mean slow loss, low ones fast loss. By pIC50 is commonly meant the negative decadic logarithm of the IC50, by convention in mol/L. As a reminder, the Cmax is the peak of the concentration-time curve. For orientation: logD means the decadic logarithm of the distribution of all forms, ionised or not, between an organic phase and buffer at a given pH.

Series [1] is described as follows: Half life in male ICR mouse at 1 mg/kg, iv measured upto 36 hrs by LC-MS/MS analysis. To be noted: in vivo. The format is ADME, organism-based.
The target in series [2] is Voltage-gated inwardly rectifying potassium channel KCNH2 (Homo sapiens, UniProt Q12809). The experiment in a line: Inhibition of hERG expressed in CHO cells incubated for 12 hrs by Qpatch assay. The format is toxicity, cell-based. On the technique in general: hERG is a cardiac potassium channel; its block is linked to QT prolongation.
Voltage-gated inwardly rectifying potassium channel KCNH2, sequence (Q12809 whole entry): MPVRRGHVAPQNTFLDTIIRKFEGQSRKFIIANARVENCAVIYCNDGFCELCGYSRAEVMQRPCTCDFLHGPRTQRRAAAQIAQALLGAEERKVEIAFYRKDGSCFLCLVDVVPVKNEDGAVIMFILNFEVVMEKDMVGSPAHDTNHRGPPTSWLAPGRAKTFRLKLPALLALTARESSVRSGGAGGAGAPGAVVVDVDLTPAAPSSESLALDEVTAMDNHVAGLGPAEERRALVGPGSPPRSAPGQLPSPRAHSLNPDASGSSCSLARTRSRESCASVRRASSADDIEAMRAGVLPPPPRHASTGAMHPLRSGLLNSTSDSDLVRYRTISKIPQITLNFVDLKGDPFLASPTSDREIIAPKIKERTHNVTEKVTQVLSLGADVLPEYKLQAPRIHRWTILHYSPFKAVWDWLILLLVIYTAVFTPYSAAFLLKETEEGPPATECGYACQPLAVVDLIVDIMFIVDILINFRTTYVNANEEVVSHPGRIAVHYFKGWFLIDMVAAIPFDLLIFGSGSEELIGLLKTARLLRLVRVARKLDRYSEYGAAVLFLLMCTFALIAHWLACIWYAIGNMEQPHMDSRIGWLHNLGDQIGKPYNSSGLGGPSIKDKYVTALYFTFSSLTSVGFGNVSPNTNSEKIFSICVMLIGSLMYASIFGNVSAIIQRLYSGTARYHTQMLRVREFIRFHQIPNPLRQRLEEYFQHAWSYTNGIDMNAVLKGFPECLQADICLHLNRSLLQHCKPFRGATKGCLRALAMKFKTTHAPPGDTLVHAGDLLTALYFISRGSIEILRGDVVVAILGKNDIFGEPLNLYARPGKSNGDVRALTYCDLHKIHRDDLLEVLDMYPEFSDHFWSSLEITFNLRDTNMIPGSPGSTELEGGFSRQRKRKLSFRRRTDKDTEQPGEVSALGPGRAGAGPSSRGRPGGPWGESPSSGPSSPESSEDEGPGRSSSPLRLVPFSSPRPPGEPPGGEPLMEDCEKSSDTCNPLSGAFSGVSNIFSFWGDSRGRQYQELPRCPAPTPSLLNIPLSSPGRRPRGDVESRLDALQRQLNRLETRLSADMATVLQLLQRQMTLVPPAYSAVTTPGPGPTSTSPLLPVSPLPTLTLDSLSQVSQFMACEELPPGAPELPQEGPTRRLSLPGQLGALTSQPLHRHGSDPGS
The subject of the next series is MIA PaCa-2. The experiment in a line: Antitumor activity against MTAP null human MIA PaCa-2 cells xenografted in mouse assessed as inhibition of SAM production in plasma at 30 to 60 mg/kg, po measured after 28 days. It is filed as functional, organism-based. To be noted: dose 30-60 mg/kg, time 28.0 day. A general note: Xenograft models place foreign cells or tissue in a host animal.

A further series has as its target T1, Cytochrome P450 1A2 (Homo sapiens, UniProt P05177).
T1 sequence (P05177 whole entry): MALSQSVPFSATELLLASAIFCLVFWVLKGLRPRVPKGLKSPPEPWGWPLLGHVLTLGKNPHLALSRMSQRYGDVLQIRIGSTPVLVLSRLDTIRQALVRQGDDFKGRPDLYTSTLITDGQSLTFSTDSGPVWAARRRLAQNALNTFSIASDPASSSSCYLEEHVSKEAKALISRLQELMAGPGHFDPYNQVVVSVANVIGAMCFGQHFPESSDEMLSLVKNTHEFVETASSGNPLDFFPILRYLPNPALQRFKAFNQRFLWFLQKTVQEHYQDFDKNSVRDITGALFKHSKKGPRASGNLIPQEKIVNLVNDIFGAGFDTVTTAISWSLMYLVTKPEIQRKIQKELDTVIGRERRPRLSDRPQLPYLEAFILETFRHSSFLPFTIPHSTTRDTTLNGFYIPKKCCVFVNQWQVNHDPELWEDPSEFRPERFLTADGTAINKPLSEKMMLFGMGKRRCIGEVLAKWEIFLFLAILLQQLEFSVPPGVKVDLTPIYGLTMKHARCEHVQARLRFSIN
The series is described as follows: Inhibition of CYP1A2 in human liver microsomes using phenacetin as substrate incubated for 10 mins in presence of NADPH by LC-MS/MS analysis. It is filed as ADME, Microsome. Background: Microsomes from liver hold many membrane-bound enzymes, among them those of drug oxidation.

For another series, the system named is SF-126. The experiment in a line: Induction of DNA damage in MTAP knockout human SF-126 cells assessed as increase in gammaH2AX level at 0.1 to 10 uM measured for 96 hrs by Western blot analysis. It is filed as functional, cell-based. To be noted: dose 0.1-10 µM.
The next series concerns MDA-MB-231. The experiment in a line: Antiproliferative activity against MTAP null human MDA-MB-231 cells assessed as inhibition of cell viability measured for 96 hrs by SRB assay. The format is functional, cell-based.
Series [3] deals with B16-F10. The series is described as follows: Antiproliferative activity against MTAP knockout mouse B16-F10 cells assessed as inhibition of cell proliferation measured for 96 hrs by SRB assay. The format is functional, cell-based.
Series [4] addresses T2, S-adenosylmethionine synthase isoform type-2 (Homo sapiens, UniProt P31153). The series is described as follows: Inhibition of MAT2A in MTAP null human MIA PaCa-2 cells assessed as reduction in SAM level measured for 4 hrs by immunoblotting analysis. The format is cell-based. The note with it: dose <= 1.0 µM.
Target sequence in this assay (P31153 whole entry, looked up, canonical isoform): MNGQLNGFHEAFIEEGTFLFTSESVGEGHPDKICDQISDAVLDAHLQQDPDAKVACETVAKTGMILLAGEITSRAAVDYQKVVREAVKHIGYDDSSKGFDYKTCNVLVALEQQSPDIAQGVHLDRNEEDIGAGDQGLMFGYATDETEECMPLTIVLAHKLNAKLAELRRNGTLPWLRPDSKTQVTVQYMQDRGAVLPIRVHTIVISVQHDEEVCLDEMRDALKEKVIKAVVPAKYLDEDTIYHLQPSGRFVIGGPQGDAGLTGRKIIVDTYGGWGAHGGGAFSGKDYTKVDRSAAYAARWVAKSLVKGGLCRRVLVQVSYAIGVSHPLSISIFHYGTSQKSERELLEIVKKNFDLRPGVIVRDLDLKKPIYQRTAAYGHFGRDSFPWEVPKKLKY
The next series has as its target Cytochrome P450 2C9 (Homo sapiens, UniProt P11712). The experiment in a line: Inhibition of CYP2C9 in human liver microsomes using diclofenac as substrate incubated for 10 mins in presence of NADPH by LC-MS/MS analysis. The format is ADME, Microsome.
Series [5] is described as follows: Toxicity in ICR mouse at 500 mg/kg, po measured for 7 days. The format is organism-based. To be noted: in vivo, 168 h, time 7 day.
The subject of series [6] is B16-F10. The experiment in a line: Antitumor activity against MTAP-knockout mouse B16-F10 cells implanted mouse assessed as reduction in SAM level in tumor at 30 to 60 mg/kg, po administered for 10 days and measured after 12 hrs. It is filed as functional, organism-based. The note with it: dose 30-60 mg/kg, time 10.5 day.
In series [7] the target is T2, S-adenosylmethionine synthase isoform type-2. The series is described as follows: Inhibition of MAT2A (unknown origin) using L-methionine and ATP as substrate preincubated with compound for 10 mins followed by substrate addition and measured after 60 mins by kinase-glo max reagent based microplate reader analysis.
Target sequence in this assay (P31153 whole entry, canonical isoform): as the sequence (P31153 whole entry, looked up, canonical isoform) above
A short description of series [8]: Cmax in male ICR mouse at 10 mg/kg, po measured upto 36 hrs by LC-MS/MS analysis. The format is ADME, organism-based. The note with it: in vivo.
Series [9] in a line: Lipophilicity, LogD of the compound in 1-Octanol/PBS by shake flask method. It is filed as physicochemical.
In series [10] the test system is B16-F10. The experiment in a line: Antiproliferative activity against mouse B16-F10 cells harboring MTAP D220A mutant assessed as inhibition of cell proliferation measured for 96 hrs by SRB assay. The format is functional, cell-based.
The next series deals with Daoy. The experiment in a line: Antiproliferative activity against MTAP null human Daoy cells assessed as inhibition of cell viability measured for 96 hrs by SRB assay. The format is functional, cell-based.

Cytochrome P450 2C9, sequence (P11712 whole entry): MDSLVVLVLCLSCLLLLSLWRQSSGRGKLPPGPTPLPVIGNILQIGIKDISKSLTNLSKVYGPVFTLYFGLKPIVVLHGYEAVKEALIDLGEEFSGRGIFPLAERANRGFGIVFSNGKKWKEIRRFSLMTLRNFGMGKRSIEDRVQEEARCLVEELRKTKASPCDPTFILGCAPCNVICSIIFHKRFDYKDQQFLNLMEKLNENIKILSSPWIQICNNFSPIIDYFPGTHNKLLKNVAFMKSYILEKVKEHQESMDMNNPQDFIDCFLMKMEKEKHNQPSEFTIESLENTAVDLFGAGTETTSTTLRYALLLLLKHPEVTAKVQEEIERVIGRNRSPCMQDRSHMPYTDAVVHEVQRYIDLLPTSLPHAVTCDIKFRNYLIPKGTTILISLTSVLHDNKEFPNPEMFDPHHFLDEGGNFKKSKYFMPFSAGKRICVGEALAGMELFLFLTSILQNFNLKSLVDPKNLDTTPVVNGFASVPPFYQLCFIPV

The compound `Cn1cnc2ccc(-c3nc4ccc(C5CC5)cc4n(-c4ccc(OC(F)F)cc4)c3=O)cc21` showed a half-life in [1] of 506 min. For the same compound, the pIC50 in [2] is 4.42; at Cytochrome P450 1A2, < 4.52; on Cytochrome P450 2C9, 4.90; in series [7], 7.31. The result in the series on MIA PaCa-2, in the series on SF-126, in the series on MDA-MB-231, in the series with B16-F10 [3], in the series with B16-F10 [6] and in the series on Daoy was Active. The inhibition entry in series [4] was “Dose-dependent-effect”. In addition, the Activity entry in [5] is “Non-toxic”. The peak level in series [8] (Cmax) was 2600 ng/mL. This compound also registered a logD in series [9] of 3.69. In the series on B16-F10 [10], the outcome was inactive.
